Among the data in US8158621B2, “Methods of treating or preventing autoimmune diseases with 2,4-pyrimidinediamine compounds” (Rigel Pharmaceuticals, Inc., priority 2002, dated 2012) are IC50 values, retold here.

The first assay deals with Human Jurkat T-cells (clone N). The assay is described as follows: Jurkat T-cell activation (anti-TCR, CD69 upregulation). It is filed as cell-based.
Conditions: not given
Put shortly: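 Jurkat cells in RPMI + 5% FBS preincubated with compound 1 h at 37 °C, then stimulated with anti-TCR C305 at 500 ng/ml for 20 h. CD69 surface expression stained with anti-CD69-APC and read by flow cytometry; IC50 versus solvent-only control.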
As to `CCOc1ccc(Nc2nc(Nc3ccc4c(c3)OCCO4)ncc2F)cc1` [Compound R920670], 14.3 µM corresponded to half-maximal inhibition (IC50). As for `CNC(=O)COc1cccc(Nc2ncc(F)c(Nc3ccc(OC)c(F)c3)n2)c1` [Compound R926892], the midpoint of inhibition, the IC50, lay at 1.64 µM. Same read-out and setting: the figure for `O=C(COc1cccc(Nc2ncc(F)c(Nc3ccc4c(c3)OCCO4)n2)c1)N1CCOCC1` [Compound R926484] is more than 10 µM. On the same count and under the same terms, the figure for `CNC(=O)Cn1ncc2cc(Nc3ncc(F)c(Nc4ccc5c(c4)OCCO5)n3)ccc21` [Compound R935240] is 2.71 µM.

For the compound `CNC(=O)COc1cccc(Nc2ncc(F)c(Nc3ccc4c(c3)OCCO4)n2)c1` [Compound R926826], the IC50 (commonly the concentration that gives 50% inhibition) came to 3.73 µM. The same measure, in the same setting: the figure for `CCOC(=O)c1cnc(Nc2cccc(O)c2)nc1N[C@@H](Cc1ccccc1)C(=O)OCC` [Compound R926528] is more than 10 µM. The compound `O=C(COc1cccc(Nc2ncc(F)c(Nc3ccc4c(c3)OCCO4)n2)c1)N1CCNCC1` [Compound R926504] yielded a half-inhibitory concentration (IC50) of 1.78 µM. That is a single-digit micromolar value. As for `COC(=O)COc1cccc(Nc2ncc(F)c(Nc3ccc4[nH]ncc4c3)n2)c1` [Compound R935269], half-maximal inhibition (IC50) required 7.58 µM. Still for that read-out and setting: the result for `Cc1noc(COc2ccc(Nc3ncc(F)c(Nc4ccc5c(c4)OCCO5)n3)cc2)n1` [Compound R935143] reads 3.84 µM; that for `Cn1nnnc1COc1ccc(Nc2nccc(Nc3cccc(O)c3)n2)cc1` [Compound R920917], 2.65 µM; that for `Cn1ncc2cc(Nc3ncc(F)c(Nc4ccc5c(cnn5C)c4)n3)ccc21` [Compound R935192], 5.39 µM. In turn, `CNC(=O)CCn1ncc2ccc(Nc3ncc(F)c(Nc4ccc5oc(C(=O)NC)cc5c4)n3)cc21` [Compound R935297] registered a concentration for half-maximal inhibition (IC50) of 5.7 µM. Same read-out and setting: the figure for `Oc1cccc(Nc2nc(Nc3ccc(OCC4=NCCCN4)cc3)ncc2F)c1` [Compound R945169] is 2.38 µM; for `OCCCn1ncc2ccc(Nc3ncc(F)c(Nc4ccc5c(c4)OCCO5)n3)cc21` [Compound R935287] it is 1.7 µM. `CCOC(=O)C(C)(C)c1ccc(Nc2nc(Nc3ccc4c(c3)OCCO4)ncc2F)cc1` [Compound R935148] had a half-inhibitory concentration (IC50) of more than 10 µM. Still for that read-out and setting: the figure for `COc1cc(Nc2ncc(F)c(Nc3ccc4c(cnn4C)c3)n2)cc(OC)c1` [Compound R935214] is 1.38 µM. Same read-out and setting: the result for `CNC(=O)COc1cccc(Nc2ncc(F)c(Nc3cccc([N+](=O)[O-])c3)n2)c1` [Compound R950261] reads 17.4 µM. The same measure, in the same setting: the result for `O=C(O)Cc1cccc(Nc2ncc(F)c(Nc3cccc(CC(=O)O)c3)n2)c1` [Compound R935117] reads more than 10 µM; that for `O=C1COc2cc(Nc3nc(Nc4cccc(O)c4)ncc3F)ccc2N1` [Compound R908698], 3.75 µM. Regarding `Cc1cnc(Nc2ccc(OCc3nnn(C)n3)cc2)nc1Nc1cccc(O)c1` [Compound R920893], the half-inhibitory concentration (IC50) came to 1.4 µM. Same read-out and setting: the figure for `O=C(COc1ccc(Nc2ncc(F)c(Nc3ccc(OCC(=O)N4CCCC4)cc3)n2)cc1)N1CCCC1` [Compound R926563] is more than 10 µM. On the same count and under the same terms, the result for `CCOC(=O)COc1cccc(Nc2nc(Nc3cccc(O)c3)ncc2F)c1` [Compound R926775] reads more than 10 µM; that for `CNC(=O)COc1cccc(Nc2ncc(F)c(Nc3cc(C(=O)OC)cc(C(F)(F)F)c3)n2)c1` [Compound R926862], 7.75 µM. Take `CNC(=O)COc1cccc(Nc2ncc(F)c(Nc3ccc(C)c(OC)c3)n2)c1` [Compound R926902]: the half-maximal inhibitory concentration (IC50) was more than 10 µM. Regarding `CCOC(=O)C1CCN(Cc2cccc(Nc3nc(Nc4cccc(OCC(=O)NC)c4)ncc3F)c2)CC1` [Compound R926905], half-maximal inhibition (IC50) required 6.49 µM. This counts as single-digit micromolar. On the same count and under the same terms, the figure for `COC(=O)COc1cccc(Nc2ncc(F)c(Nc3cc(C)c(O)c(Cl)c3)n2)c1` [Compound R945148] is 16.2 µM; for `COC(=O)Cn1ncc2cc(Nc3nc(Nc4ccc5c(c4)OCCO5)ncc3F)ccc21` [Compound R935249] it is 4.83 µM. Turning to `CC1Sc2ccc(Nc3ncc(F)c(Nc4cccc(O)c4)n3)cc2NC1=O` (racemic) [Compound R909263], the IC50 worked out at 6.2 µM. The same measure, in the same setting: the result for `COc1cc(C(=O)NS(=O)(=O)c2ccccc2C)ccc1Cn1ncc2cc(Nc3ncc(F)c(Nc4ccc5c(c4)OCCO5)n3)ccc21` [Compound R935339] reads more than 10 µM; that for `CCOC(=O)c1cnc(Nc2ccc(OCC(=O)NCC3CC3)cc2)nc1Nc1cccc(O)c1` [Compound R925838], more than 10 µM; that for `CCCNC(=O)COc1ccc(Nc2ncc(C#N)c(Nc3ccc(OCC(=O)NCCC)cc3)n2)cc1` [Compound R925853], more than 10 µM. The same measure, in the same setting: the figure for `COC(=O)c1cc2cc(Nc3ncc(F)c(Nc4ccc5[nH]c(C(=O)OC)cc5c4)n3)ccc2[nH]1` [Compound R926593] is 1.28 µM; for `O=C(COc1cccc(Nc2ncc(F)c(Nc3cccc(O)c3)n2)c1)N1CCNCC1` [Compound R926772] it is 2.04 µM; for `COc1ccc(Nc2ncc([N+](=O)[O-])c(Nc3ccc(OC)c(OC)c3)n2)cc1OC` [Compound R940089] it is more than 10 µM. The same measure, in the same setting: the figure for `COC(=O)Cn1ncc2cc(Nc3ncc(F)c(Nc4cccc(O)c4)n3)ccc21` [Compound R935237] is more than 10 µM. In turn, `Oc1cccc(Nc2nc(Nc3ccc(OCc4nnn[nH]4)cc3)ncc2F)c1` [Compound R920818] registered a half-inhibitory concentration (IC50) of more than 10 µM. On to `Cc1nc(COc2cccc(Nc3ncc(F)c(Nc4ccc(OC(C)C)cc4)n3)c2)no1` [Compound R945129], for which the IC50 came to 6.08 µM.

The assay is the same for the next values; noted with them: Homo sapiens.
As for `CC(C)NC(=O)Oc1cccc(Nc2ncc(F)c(Nc3cccc(OC(=O)NC(C)C)c3)n2)c1` [Compound R926412], the IC50 turned out to be 2.38 µM.

Compound `O=[N+]([O-])c1cc(Nc2ccnc(Nc3ccc(F)c([N+](=O)[O-])c3)n2)ccc1F` [Compound R950152] had an IC50 of 2.65 µM. The same measure, in the same setting: the figure for `O=[N+]([O-])c1cc(Nc2ncc(F)c(Nc3ccc(Cl)c([N+](=O)[O-])c3)n2)ccc1Cl` [Compound R950149] is more than 10 µM.

Still in this assay, the particulars now being: Homo sapiens, Jurkat.
The compound `Clc1ccc(-c2cnc(Nc3ccc4c(c3)OCCO4)nc2Nc2ccc3c(c2)OCCO3)cc1` [Compound R925786] had an IC50 of more than 10 µM. `CCOC(=O)C(C)(C)c1ccc(Nc2nc(Nc3ccc4c(c3)OCCO4)ncc2F)cc1` [Compound R935172] registered an IC50 of more than 10 µM. The same measure, in the same setting: the result for `COc1ccc(Nc2nc(NCCN3CCN(Cc4ccccc4)CC3)ncc2F)cc1OC` [Compound R940262] reads 6.45 µM; that for `Nc1cccc(Nc2ncc(F)c(Nc3cccc(O)c3)n2)c1` [Compound R950227], 7.11 µM; that for `CCOC1CCCc2ccc(Nc3nc(Nc4cccc(O)c4)ncc3F)cc21` (stereo not shown) [Compound R926942], more than 10 µM. Still for that read-out and setting: the result for `Oc1cccc(Nc2nc(NCC3COc4ccccc4O3)ncc2F)c1` (stereo not shown) [Compound R950214] reads more than 10 µM; that for `Fc1cnc(Nc2ccc3c(c2)OCCO3)nc1NCc1csc2ccc(Cl)cc12` [Compound R926721], 3.46 µM. The compound `Fc1cnc(Nc2cccc(OCc3ccccc3)c2)nc1Nc1cccc(OCc2ccccc2)c1` [Compound R926394] came in with an IC50 of more than 10 µM. Still for that read-out and setting: the figure for `CCOC(=O)Nc1ccc(Nc2ncc(F)c(Nc3ccc(NC(=O)OCC)c(O)c3)n2)cc1O` [Compound R926340] is more than 10 µM. Same read-out and setting: the figure for `Oc1ccc(Nc2ncc(F)c(Nc3ccc(O)cc3)n2)cc1` [Compound R926405] is 7.62 µM. The same measure, in the same setting: the figure for `Brc1cnc(Nc2ccc3c(c2)OCCO3)nc1Nc1ccc2c(c1)OCCO2` [Compound R925771] is 7.19 µM; for `Oc1ccc(Nc2ncc(F)c(Nc3ccc(O)cc3F)n2)c(F)c1` [Compound R926683] it is 7.63 µM; for `CC(C)c1ccc(Nc2ncc(F)c(Nc3ccc4c(c3)OCCO4)n2)cc1` [Compound R926790] it is more than 10 µM.

Regarding `Oc1cccc(Nc2cc(Cl)nc(Nc3cccc(O)c3)n2)c1` [Compound R926408], the half-maximal inhibitory concentration (IC50) was more than 10 µM. On the same count and under the same terms, the figure for `Fc1cnc(NC(c2ccc(Cl)cc2)c2ccc(Cl)cc2)nc1NC(c1ccc(Cl)cc1)c1ccc(Cl)cc1` [Compound R935006] is more than 10 µM; for `Fc1cnc(Nc2ccc(-n3cnc(Cl)c3Cl)cc2)nc1Nc1ccc2c(c1)OCCO2` [Compound R926788] it is more than 10 µM; for `Fc1ccc(Nc2ncc(F)c(Nc3ccc(F)cc3)n2)cc1` [Compound R926224] it is more than 10 µM. Still for that read-out and setting: the result for `Fc1cnc(NCCc2ccccc2)nc1Nc1ccc2c(c1)OCCO2` (racemic) [Compound R908697] reads more than 10 µM. Regarding `CCOc1ccc(Nc2ncc(F)c(Nc3ccc4c(c3)OCCO4)n2)cc1` [Compound R926211], half-maximal inhibition (IC50) was put at 15 µM. This lies in the double-digit micromolar range. Same read-out and setting: the figure for `Clc1cccc(-c2cnc(Nc3ccc4c(c3)OCCO4)nc2Nc2ccc3c(c2)OCCO3)c1` [Compound R925787] is more than 10 µM; for `Cc1onc(-c2ccccc2)c1Nc1ncc(F)c(Nc2ccc3c(c2)OCCO3)n1` [Compound R926743] it is more than 10 µM; for `OCC(O)COc1ccc(Nc2ncc(F)c(Nc3cccc(O)c3)n2)cc1` (stereo not shown) [Compound R935180] it is 3.57 µM. Same read-out and setting: the result for `CC(C)(C)OC(=O)Nc1ccc(Nc2ncc(F)c(Nc3ccc(NC(=O)OC(C)(C)C)cc3)n2)cc1` [Compound R950120] reads 12.1 µM; that for `Fc1cnc(Nc2cccc(-c3ccccc3)c2)nc1Nc1cccc(-c2ccccc2)c1` [Compound R926403], more than 10 µM.

Turning to `Fc1cnc(Nc2cccc(Cl)c2)nc1Nc1cccc(Cl)c1` [Compound R926209], the 50% inhibitory concentration (IC50) was more than 10 µM. As to `Oc1cccc(Nc2ncc(C(F)(F)F)c(Nc3cccc(O)c3)n2)c1` [Compound R925863], the IC50 was determined as 2.96 µM.

Regarding `COC(=O)c1cc(N)cc(Nc2ccnc(Nc3cc(N)cc(C(=O)OC)c3)n2)c1` [Compound R950132], 4.64 µM corresponded to half-maximal inhibition (IC50).

In turn, `CNC(=O)c1cc(Nc2nc(NC)ncc2F)ccc1OC` [Compound R940304] displayed a 50% inhibitory concentration (IC50) of more than 10 µM. As for `COC(=O)c1cc2cc(Nc3ncc(F)c(Nc4cccc(C(C)C)c4)n3)ccc2o1` [Compound R940283], the concentration for half-maximal inhibition (IC50) is more than 10 µM. Same read-out and setting: the result for `N#Cc1cc(Nc2ncc(F)c(Nc3ccc(O)c(C#N)c3)n2)ccc1O` [Compound R950092] reads more than 10 µM.
